In PubChem BioAssay (NCI):
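Where inhibition never reached the appropriate level, the endpoint shown equals the highest concentration tested. Otherwise, values were interpolated linearly from a five-concentration, 48-hour dose response in 96-well plates. TGI: total growth inhibition.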

Experiments:
Assay in all cases: growth of human tumour cells (NCI), 48 h
[1] = test system: PC-3 prostate
[2] = test system: SF-539 CNS
[3] = test system: NCI/ADR-RES ovarian
[4] = test system: EKVX NSCLC
[5] = test system: COLO 205 colon
[6] = test system: HOP-62 NSCLC
[7] = test system: BT-549 breast
[8] = test system: IGROV1 ovarian
[9] = test system: NCI-H460 lung
[10] = test system: HCT-15 colon
[11] = test system: SNB-19 CNS
[12] = test system: UACC-62 melanoma
[13] = test system: UACC-257 melanoma
[14] = test system: MDA-N
[15] = test system: MDA-MB-231 breast
[16] = test system: HS 578T breast
[17] = test system: HOP-92 NSCLC
[18] = test system: K-562 leukemia
[19] = test system: NCI-H226 lung
[20] = test system: T-47D breast
[21] = test system: SNB-75 CNS
[22] = test system: MALME-3M melanoma
[23] = test system: SK-MEL-5 melanoma
[24] = test system: 786-0 renal
[25] = test system: NCI-H23 lung
[26] = test system: SF-268 CNS
[27] = test system: MOLT-4 leukemia
[28] = test system: A498 renal
[29] = test system: ACHN renal
[30] = test system: RXF 393 renal
[31] = test system: LOX IMVI melanoma
[32] = test system: CCRF-CEM leukemia
[33] = test system: M14 melanoma
[34] = test system: MCF7 breast
[35] = test system: TK-10 renal
[36] = test system: DU-145 prostate
[37] = test system: HCC-2998 colon
[38] = test system: KM12 colon
[39] = test system: NCI-H522 lung
[40] = test system: UO-31 renal
[41] = test system: RPMI-8226 leukemia
[42] = test system: MDA-MB-435
[43] = test system: A549 NSCLC
[44] = test system: OVCAR-5 ovarian
[45] = test system: SK-MEL-2 melanoma
[46] = test system: U251 CNS
[47] = test system: HCT-116 colon
[48] = test system: SF-295 CNS
[49] = test system: SR leukemia
[50] = test system: SK-OV-3 ovarian
[51] = test system: OVCAR-8 ovarian
[52] = test system: HL-60(TB) leukemia
[53] = test system: HT29 colon
[54] = test system: SW-620 colon
[55] = test system: OVCAR-3 ovarian
[56] = test system: SK-MEL-28 melanoma
[57] = test system: CAKI-1 renal
[58] = test system: SN12C renal
[59] = test system: OVCAR-4 ovarian

CCC(=O)NC(Nc1cccc(F)c1C)(C(F)(F)F)C(F)(F)F
TGI [1]: > 100 µM
TGI [2]: > 100 µM
TGI [3]: > 100 µM
TGI [4]: > 100 µM
TGI [5]: > 100 µM
TGI [6]: > 100 µM
TGI [7]: > 100 µM
TGI [8]: > 100 µM
TGI [9]: > 100 µM
TGI [10]: > 100 µM
TGI [11]: > 100 µM
TGI [12]: > 100 µM
TGI [13]: > 100 µM
TGI [14]: > 100 µM
TGI [15]: > 100 µM
TGI [16]: > 100 µM
TGI [17]: > 100 µM
TGI [18]: > 100 µM
TGI [19]: > 100 µM
TGI [20]: > 100 µM
TGI [21]: > 100 µM
TGI [22]: > 100 µM
TGI [23]: > 100 µM
TGI [24]: > 100 µM
TGI [25]: > 100 µM
TGI [26]: > 100 µM
TGI [27]: > 100 µM
TGI [28]: > 100 µM
TGI [29]: > 100 µM
TGI [30]: 80.7 µM
TGI [31]: > 100 µM
TGI [32]: > 100 µM
TGI [33]: > 100 µM
TGI [34]: > 100 µM
TGI [35]: > 100 µM
TGI [36]: > 100 µM
TGI [37]: > 100 µM
TGI [38]: > 100 µM
TGI [39]: > 100 µM
TGI [40]: > 100 µM
TGI [41]: > 100 µM
TGI [42]: > 100 µM
TGI [43]: > 100 µM
TGI [44]: > 100 µM
TGI [45]: > 100 µM
TGI [46]: > 100 µM
TGI [47]: > 100 µM
TGI [48]: > 100 µM
TGI [49]: > 100 µM
TGI [50]: > 100 µM
TGI [51]: > 100 µM
TGI [52]: > 100 µM
TGI [53]: > 100 µM
TGI [54]: > 100 µM
TGI [55]: > 100 µM
TGI [56]: > 100 µM
TGI [57]: > 100 µM

O=c1c2ccccc2[se]n1-c1cccnc1
TGI [1]: 48.6 µM
TGI [2]: 56.5 µM
TGI [3]: > 100 µM
TGI [4]: > 100 µM
TGI [58]: 99.4 µM
TGI [5]: 45.1 µM
TGI [6]: 71 µM
TGI [7]: 84.6 µM
TGI [8]: 46.7 µM
TGI [9]: > 100 µM
TGI [10]: 52.8 µM
TGI [11]: > 100 µM
TGI [12]: 37.1 µM
TGI [13]: 57.7 µM
TGI [14]: 52.9 µM
TGI [15]: 66.6 µM
TGI [16]: 42.1 µM
TGI [17]: 36.1 µM
TGI [18]: > 100 µM
TGI [19]: > 100 µM
TGI [20]: 57.3 µM
TGI [21]: 43.8 µM
TGI [59]: > 100 µM
TGI [22]: 50.7 µM
TGI [23]: 26.7 µM
TGI [24]: 87.4 µM
TGI [25]: 53.2 µM
TGI [26]: 70.6 µM
TGI [27]: > 100 µM
TGI [28]: 61.9 µM
TGI [29]: 88.1 µM
TGI [30]: 69.2 µM
TGI [31]: 56.8 µM
TGI [33]: 83.7 µM
TGI [34]: 80.6 µM
TGI [35]: 50.1 µM
TGI [36]: 34.6 µM
TGI [37]: 33.8 µM
TGI [38]: > 100 µM
TGI [39]: 55.4 µM
TGI [40]: 93.7 µM
TGI [41]: 86.9 µM
TGI [42]: 46.4 µM
TGI [43]: > 100 µM
TGI [44]: > 100 µM
TGI [45]: 47.9 µM
TGI [46]: 76 µM
TGI [47]: > 100 µM
TGI [48]: > 100 µM
TGI [49]: > 100 µM
TGI [50]: > 100 µM
TGI [51]: 69.5 µM
TGI [52]: 91.5 µM
TGI [53]: > 100 µM
TGI [54]: 83.3 µM
TGI [55]: > 100 µM
TGI [56]: 81 µM
TGI [57]: > 100 µM

Oc1[nH]c2ccccc2c1N=Nc1ccccc1Cl
TGI [1]: > 100 µM
TGI [2]: > 100 µM
TGI [3]: > 100 µM
TGI [4]: > 100 µM
TGI [58]: 97.7 µM
TGI [5]: > 100 µM
TGI [6]: 40.6 µM
TGI [7]: > 100 µM
TGI [8]: > 100 µM
TGI [9]: > 100 µM
TGI [10]: > 100 µM
TGI [11]: > 83.6 µM
TGI [12]: > 100 µM
TGI [13]: > 100 µM
TGI [14]: > 100 µM
TGI [15]: 41.6 µM
TGI [16]: > 100 µM
TGI [18]: > 100 µM
TGI [19]: > 100 µM
TGI [20]: > 100 µM
TGI [21]: > 79.6 µM
TGI [59]: 14.6 µM
TGI [22]: > 100 µM
TGI [23]: > 100 µM
TGI [24]: 31.1 µM
TGI [25]: > 100 µM
TGI [26]: > 100 µM
TGI [27]: > 100 µM
TGI [28]: > 79.9 µM
TGI [29]: 15.2 µM
TGI [30]: > 85.2 µM
TGI [31]: > 100 µM
TGI [32]: > 100 µM
TGI [33]: > 100 µM
TGI [34]: > 100 µM
TGI [35]: 32.8 µM
TGI [36]: > 100 µM
TGI [37]: > 100 µM
TGI [38]: > 100 µM
TGI [39]: > 100 µM
TGI [40]: > 100 µM
TGI [41]: > 100 µM
TGI [42]: > 100 µM
TGI [43]: > 100 µM
TGI [44]: > 100 µM
TGI [45]: > 100 µM
TGI [46]: 47.4 µM
TGI [47]: > 100 µM
TGI [48]: > 100 µM
TGI [49]: 34.3 µM
TGI [50]: 64.5 µM
TGI [51]: > 64.7 µM
TGI [52]: > 100 µM
TGI [53]: > 100 µM
TGI [54]: > 100 µM
TGI [55]: > 93.8 µM
TGI [56]: > 100 µM
TGI [57]: 61.2 µM

O=C1N=c2ccccc2=C1c1c(O)[nH]c2ccccc12
TGI [1]: 26.2 µM
TGI [3]: 48.2 µM
TGI [4]: 71.6 µM
TGI [58]: 51.5 µM
TGI [5]: > 100 µM
TGI [6]: > 100 µM
TGI [7]: 96.2 µM
TGI [8]: > 100 µM
TGI [9]: 59.3 µM
TGI [10]: 19.6 µM
TGI [11]: 67.4 µM
TGI [12]: 39.2 µM
TGI [13]: > 100 µM
TGI [14]: > 100 µM
TGI [15]: > 100 µM
TGI [16]: > 100 µM
TGI [17]: 81.1 µM
TGI [18]: > 100 µM
TGI [19]: > 100 µM
TGI [20]: 3.77 µM
TGI [21]: 35 µM
TGI [59]: 29.9 µM
TGI [22]: 35.5 µM
TGI [23]: > 100 µM
TGI [24]: 21.6 µM
TGI [25]: 69.2 µM
TGI [26]: > 100 µM
TGI [27]: > 100 µM
TGI [28]: 64.3 µM
TGI [29]: 37.1 µM
TGI [30]: 16.3 µM
TGI [31]: 49.9 µM
TGI [32]: > 100 µM
TGI [33]: > 100 µM
TGI [34]: 25.3 µM
TGI [35]: 72.7 µM
TGI [36]: 54.6 µM
TGI [37]: 63.5 µM
TGI [38]: > 100 µM
TGI [39]: 25.6 µM
TGI [40]: 30.5 µM
TGI [41]: > 100 µM
TGI [42]: > 100 µM
TGI [43]: > 100 µM
TGI [44]: 12.4 µM
TGI [45]: 58.9 µM
TGI [46]: 24.1 µM
TGI [47]: 88.3 µM
TGI [48]: > 100 µM
TGI [49]: 17.8 µM
TGI [50]: > 100 µM
TGI [51]: 66.7 µM
TGI [53]: 17.8 µM
TGI [54]: > 100 µM
TGI [55]: 41.1 µM
TGI [56]: > 100 µM
TGI [57]: > 100 µM
